According to US9492425B2 (priority 2008, dated 2016):

Experiments:
[1] = SuperSol 1000 kinetic and equilibrium solubility assay
Procedure: Since both compounds form suspensions in pure deionized H2O, physicochemical properties were assessed from solutions of 100% EtOH as well as mixtures of dH2O and EtOH, specifically, EtOH 50/50 (vol/vol) and EtOH/dH2O 75/25 (vol/vol) according to European Pharmacopeia guidelines 01/2008, Section 2.9.3., Table 2.9.3.5. • The following parameters were measured: • t[MSS] defined as: Time from start of analysis to Maximum Solubilization Speed (min) • C[MSS] defined as: Early kinetic solubility as expressed as concentration at Maximum Solubilization Speed (mg×I^−1) • C[Eq] defined as: Late kinetic solubility as expressed as concentration at Equilibrium Kinetic Solubility (mg×I^−1) • t[Eq] defined as: Time from start of analysis to Equilibrium Kinetic solubility (min) • ΔC [CEq−CMSS] defined as: Difference in concentration between Early and Late Kinetic Solubility as defined above (mg×I^−1) • Δt [CEq−CMSS] defined as: Difference in time between Early and Late Kinetic Solubility endpoints (min) • MSS defined as: Maximum Solubility Speed defined by C[MSS]/t[Mss] (mg×I^−1×min^−1) • ISI defined as: Intrinsic Solubility Index defined by ΔC [CEq−CMSS]/Δt [CEq−CMSS] • The higher the ISI value, the faster the solubilization and the stronger the relative contribution of the late, intrinsic kinetic equilibrium solubility C[Eq]. • KSR defined as: Kinetic Solubility ratio given by C[MSS]/C[Eq]. • The KSR is the numerical ratio indicator of the relative contribution of the early kinetic Solubility to the Overall Late Kinetic Equilibrium Solubility. The higher the KSR Value, the stronger the relative contribution of the early kinetic solubility C[MSS].

[2] = Solubility in different organic solvents (aliquot addition until dissolution); format: physicochemical
Procedure: Solubility in different organic solvents was measured using the following protocol. Approximately 25 mg portions of genistein and crystalline genistein sodium dihydrate salt were placed in 48 different vials, separately. 5 volume aliquots of each solvent were added exclusively to a vial. Between each addition, the mixture was checked for dissolution and if no dissolution was apparent, the procedure was continued until dissolution was observed or when 50 volumes had been added.

[3] = Gravimetric vapor sorption (GVS); format: physicochemical; conditions: for maximum of water adsorbed (GVS): 0-90% RH sorption cycle; for moisture change (GVS): between 20 and 70 RH % (typical working range of material)
Procedure: Approximately 15 mg of sample was placed into a wire-mesh vapor sorption balance pan and loaded into an SMS intrinsic vapor sorption balance supplied (Surface Measurement Systems Instruments). The sample was then dried by maintaining a 0% humidity environment until no further weight change was recorded. Subsequently, the sample was then subjected to a ramping profile from 0-90% RH at 10% RH increments, maintaining the sample at each step until equilibration had been attained (99.5% step completion). Upon reaching equilibration, the % RH within the apparatus was ramped to the next step and the equilibration procedure repeated. After completion of the sorption cycle, the sample was then dried using the same procedure. The weight change during the sorption/desorption cycles were then monitored, allowing for the hygroscopic nature of the sample to be determined.

[4] = Aqueous solubility (slurry ca. 24 hours, filtered, HPLC-UV); format: physicochemical; conditions: aqueous buffer, thermodynamic from solid
Procedure: Aqueous solubility was measured using the following protocol. Slurries of genistein and of crystalline genistein sodium dihydrate salt were made up in aqueous media in which pH was set at 4.5, 6.7, and 7.5, each slurry was shaken at ambient temperature for ca. 24 hours and then filtered using a 0.2 μm filter into a clean vial. The saturated solutions were then diluted and analyzed for API (genistein) content using N—Ac-DL-Methionine on a Chirobiotic T HPLC column and UV detector set at λmax=270 nm. The mobile phase was acetonitrile/water run in isocratic mode over a 30 minute period. The results are presented in Table 3, (BDL=below detection limits).
The aqueous solubility of crystalline genistein potassium salt dihydrate was measured using the protocol described in Example 1.7. Table 16 compares the aqueous solubilities of crystalline genistein potassium salt dihydrate with that of genistein.

[5] = Disproportionation study (slurry in distilled water ca. 48 hours, XRPD, pH of supernatant); format: physicochemical; conditions: slurried in distilled water for ca. 48 hours
Procedure: (§1) A 50 mg sample of crystalline genistein sodium salt dihydrate was slurried in 250 μL distilled water for ca. 48 hours and then checked by XRPD for disproportionation. The pH of the supernatant was also measured using a Corning 240 pH meter. […] The pH of the supernatant after slurrying was 7.1.
as §1, with “A” for “A 50 mg”, “potassium” for “sodium”, “in” for “in 250 μL”, “liquid” for “after slurrying”, “7.3 indicating no disproportionation.” for “7.1.”

[6] = Stability study (80° C., 40° C./75 RH %, light; XRPD after 7 days); conditions: 40° C./75 RH % for 7 days
Procedure: Sample stability was tested at 80° C. for 7 days and at 40° C./75 RH % for 7 days. Observations such as color change were noted after 7 days and XRPD of samples were taken after 7 days to investigate any solid form change.

[7] = male, Sprague-Dawley, rat, in vivo
Procedure: (§2) Genistein and crystalline genistein sodium salt dihydrate were stored at room temperature under desiccant and protected from light. The dosing solutions were prepared fresh from powders on the day of dosing. The dosing solution for intravenous administration (IV) was prepared at 1 mg/mL (free acid) in 50:50 DMSO:saline. The dosing solutions for intraduodenal administration (ID) were prepared at 2 mg/mL (genistein free acid) in a 0.2% sodium carboxymethyl cellulose (Na CMC) solution in water.
(§3) The pharmacokinetics of genistein was evaluated in fasted male Sprague-Dawley rats. Each animal was fitted with a jugular vein cannula (JVC) for blood sampling. Animals intended for intravenous dosing were fitted with an additional JVC for dose administration. Animals intended for intraduodenal dosing were fitted with an intraduodenal cannula (IDC) for dose administration. Surgically modified animals were housed one per cage. All animals were supplied with a commercial rodent diet (LabDiet, Certified Rodent Diet #5002) ad libitum prior to study initiation. […]
(§4) Each blood sample was collected from the rats via a jugular vein cannula and placed into chilled polypropylene tubes containing sodium heparin as an anticoagulant. […] The total concentration of genistein in plasma samples were analyzed by LC-MS/MS after an overnight incubation with glucuronidase/arylsulfatase enzyme mixture. Pharmacokinetic parameters were calculated using the WinNonlin software.
(§5) An LC-MS/MS analytical method for the determination of genistein in rat plasma was developed. Prior to sample analysis, a standard curve was analyzed to determine the specificity, range, and linearity of the method. Total genistein in plasma samples was determined by pre-treating all samples with β-glucuronidase/arylsulfatase enzymes and incubating prior to analysis. […]
(§6) Individual plasma concentrations versus time data for genistein were subjected to non-compartmental analysis using the pharmacokinetic program WinNonlin v. […] Plasma concentrations below the limit of quantitation (10 ng/mL) were assigned a value of zero for PK analysis only.

[8] = Comparative pharmacokinetic study of genistein and crystalline genistein sodium salt dihydrate, intraduodenal and intravenous; conditions: rats
Procedure: as §2, §3, §4, §5, §6

## O=c1c(-c2ccc(O)cc2)coc2cc(O)cc(O)c12 [Genistein, 4′,5,7-trihydroxyisoflavone-5,7-dihydroxy-3-(4-hydroxyphenyl)-4H-1-benzopyran-4-one, reference compound]
[1]; EtOH 100%
  C[Eq]: 13.79 mg×I^−1
  C[MSS]: 5.81 mg×I^−1
  ISI: 2.11
  KSR: 0.42
  KSR, assessment in words: acceptable
  MSS: 23.81 mg×I^−1×min^−1
  MSS, assessment in words: good
  ΔC [C, − CMSS]: 7.98 mg×I^−1
[1]; EtOH/dH2O 50/50 (vol/vol)
  C[Eq]: 12.87 mg×I^−1
  C[MSS]: 7.43 mg×I^−1
  ISI: 1.55
  KSR: 0.58
  KSR, assessment in words: acceptable
  MSS: 12.18 mg×I^−1×min^−1
  MSS, assessment in words: good
  ΔC [CEq − CMSS]: 5.44 mg×I^−1
[1]; EtOH/dH2O 75/25 (vol/vol)
  C[Eq]: 14.03 mg×I^−1
  C[MSS]: 8.52 mg×I^−1
  ISI: 1.49
  KSR: 0.61
  KSR, assessment in words: good
  MSS: 19.67 mg×I^−1×min^−1
  MSS, assessment in words: good
  ΔC [CEq − CMSS]: 5.51 mg×I^−1
[2]; 1,4-dioxane
  Solubility: <10.3 mg/mL
[2]; Acetone/Water (50:50)
  Solubility: <10.1 mg/mL
[2]; Acetonitrile (MeCN)
  Solubility: <10.1 mg/mL
[2]; Cyclohexane
  Solubility: <10.7 mg/mL
[2]; Dichloromethane (DCM)
  Solubility: <10.3 mg/mL
[2]; Diisopropylether (DIPE)
  Solubility: <10.6 mg/mL
[2]; Ethanol (EtOH)
  Solubility: <10.8 mg/mL
[2]; Methanol (MeOH)
  Solubility: <10.6 mg/mL
[2]; Methyl acetate (MeOAc)
  Solubility: <10.3 mg/mL
[2]; Methyl isobutyl ketone (MIBK)
  Solubility: <10.1 mg/mL
[2]; Methylethyl ketone (MEK)
  Solubility: <10.8 mg/mL
[2]; Toluene
  Solubility: <10.1 mg/mL
[2]; Toluene/Dioxane (50:50)
  Solubility: <10.1 mg/mL

## O.O.O=c1c(-c2ccc(O)cc2)coc2cc(O)cc(O)c12.[K] [genistein potassium salt dihydrate]
[3]
  maximum of water adsorbed (GVS): 16 wt %
  moisture change (GVS): ca. 3%
[4]; Water/slurry pH 4.5, ambient temperature
  solubility at 24 h: 0.04 mg/mL
[4]; Water/slurry pH 6.7, ambient temperature
  solubility at 24 h: 0.057 mg/mL
[4]; Water/slurry pH 7.5, ambient temperature
  solubility at 24 h: 0.069 mg/mL
[5]
  disproportionation (XRPD): No signs of disproportionation
  pH of the supernatant after slurrying: 7.3

## O=c1c(-c2ccc(O)cc2)coc2cc(O)cc(O)c12.[K] [genistein potassium salt]
[6]
  stability, solid form change by XRPD: crystallizes to form genistein potassium salt dihydrate

## O.O.O=c1c(-c2ccc(O)cc2)coc2cc(O)cc(O)c12.[Na] [genistein sodium salt dihydrate]
[3]
  maximum of water adsorbed (GVS): 45 wt %
  moisture change (GVS): ca. 2%
[7]
  mean peak plasma concentration (Cmax) fold higher compared to genistein: 4.2 fold
[8]; intraduodenal dosing, mean plasma profile (FIG. 13)
  time after ID dosing at which maximum plasma concentration (Cmax) was observed: ≤ 15 min
[8]; intravenous 1 mg/kg
  pharmacokinetic profile following IV dosing, compared with genistein: not significantly different
[1]; EtOH 100%
  C[Eq]: 11.20 mg×I^−1
  C[MSS]: 10.85 mg×I^−1
  ISI: 0.07
  KSR: 0.97
  KSR, assessment in words: excellent
  MSS: 36.90 mg×I^−1×min^−1
  MSS, assessment in words: excellent
  ΔC [C, − CMSS]: 0.35 mg×I^−1
[1]; EtOH/dH2O 50/50 (vol/vol)
  C[Eq]: 17.40 mg×I^−1
  C[MSS]: 14.67 mg×I^−1
  ISI: 0.60
  KSR: 0.84
  KSR, assessment in words: excellent
  MSS: 20.66 mg×I^−1×min^−1
  MSS, assessment in words: excellent
  ΔC [CEq − CMSS]: 2.73 mg×I^−1
[1]; EtOH/dH2O 75/25 (vol/vol)
  C[Eq]: 15.86 mg×I^−1
  C[MSS]: 11.20 mg×I^−1
  ISI: 1.26
  KSR: 0.71
  KSR, assessment in words: excellent
  MSS: 37.33 mg×I^−1×min^−1
  MSS, assessment in words: excellent
  ΔC [CEq − CMSS]: 4.66 mg×I^−1
[2]; 1,4-dioxane
  Solubility: <10.6 mg/mL
[2]; Acetone/IPA (50:50)
  Solubility: 20.2 mg/mL
[2]; Acetonitrile (MeCN)
  Solubility: <10.4 mg/mL
[2]; Cyclohexane
  Solubility: <10.9 mg/mL
[2]; Dichloromethane (DCM)
  Solubility: <10.8 mg/mL
[2]; Diisopropylether (DIPE)
  Solubility: <9.7 mg/mL
[2]; Heptane
  Solubility: <9.9 mg/mL
[2]; Methanol (MeOH)
  Solubility: <8.8 mg/mL
[2]; Methyl isobutyl ketone (MIBK)
  Solubility: <9.0 mg/mL
[2]; Octanol
  Solubility: <11 mg/mL
[2]; Tetrahydrofuran (THF)
  Solubility: <10.4 mg/mL
[2]; Toluene
  Solubility: <9.9 mg/mL
[2]; Toluene/Dioxane (50:50)
  Solubility: <9.7 mg/mL
[5]
  disproportionation (XRPD): No signs of disproportionation
  pH of the supernatant after slurrying: 7.1
